We go through 4 compounds from ChEMBL document CHEMBL1201862, “PubChem BioAssay data set” (2004).

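These data come from cells grown in 96-well plates and exposed to compound for 48 hours at five concentrations. GI50 marks 50% less growth.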 Calls of active or inactive are those of the source. Rule as the data show it: active = GI50 up to about 1.1 µM and inactive = higher.

Test systems include SR; OVCAR-8; SK-MEL-2; HCT-15; M14; RXF 393; NCI-H460; SK-MEL-5; NCI-H226; CCRF-CEM; UO-31; K562; UACC-257; CAKI-1; MOLT-4; SF-539; OVCAR-4; SK-OV-3; MCF7.
Experiment in all cases: growth of human tumour cells (NCI), 48 h

Consider `CNC(=O)OCc1nccc2c(C)c3[nH]c4ccc(OC)cc4c3cc12`, for which the GI50 was 0.218 µM (active) with SR; 3.1 µM (inactive) in the assay on OVCAR-8; 8.91 µM (inactive) with SK-MEL-2; 3.03 µM in the assay with HCT-15; 9.12 µM (inactive) in the assay on M14; 3.16 µM (inactive) in the assay on RXF 393. The GI50 with NCI-H460 was 1.08 µM (active); in the assay with SK-MEL-5, 2.79 µM (inactive); with NCI-H226, 1.73 µM (inactive); with CCRF-CEM, 1.51 µM (inactive); in the assay on UO-31 it was 3.35 µM (inactive); in the assay with K562, 2.7 µM (inactive). Also, the GI50 was 11.3 µM (inactive) in the assay on UACC-257; 19.1 µM (inactive) with CAKI-1; 0.705 µM (active) with MOLT-4; 3.17 µM (inactive) in the assay with SF-539; 8.11 µM (inactive) with OVCAR-4; 10.7 µM (inactive) in the assay on SK-OV-3.
With `NC1=NC(=O)/C(=C/c2ccccc2[N+](=O)[O-])C(N)=N1`, the GI50 with SR is > 100 µM (inactive); with OVCAR-8 it was > 100 µM (inactive); with SK-MEL-2 it was > 100 µM (inactive); in the assay on HCT-15 it was over 100 µM; with M14 it was > 100 µM (inactive); with RXF 393 it was > 100 µM (inactive). Besides, the GI50 in the assay on NCI-H460, in the assay on SK-MEL-5, in the assay on NCI-H226, in the assay with CCRF-CEM, in the assay on UO-31 and with K562 was > 100 µM (inactive) in each case. For the same compound, the GI50 with UACC-257, in the assay on CAKI-1, with MOLT-4, in the assay on SF-539, in the assay on OVCAR-4 and in the assay on SK-OV-3 was > 100 µM (inactive) each time.
Turning to `COc1ccc(/C=C2\C[C@H]3[C@@H]4CC=C5C[C@@H](OC(C)=O)CC[C@]5(C)[C@H]4CC[C@]3(C)C2=O)cc1OC`, the GI50 is 24.7 µM (inactive) with SR; 40.6 µM (inactive) in the assay on OVCAR-8; 31.1 µM (inactive) in the assay with SK-MEL-2; 68.9 µM in the assay on HCT-15; 66.4 µM (inactive) with M14; 69.5 µM (inactive) in the assay with RXF 393. Also, the GI50 is 33.9 µM (inactive) in the assay on NCI-H460; 10.6 µM (inactive) with SK-MEL-5; 48.2 µM (inactive) in the assay with NCI-H226; 37 µM (inactive) with CCRF-CEM; 12.2 µM (inactive) with UO-31; 7.96 µM (inactive) in the assay with K562. Moreover, the GI50 with UACC-257 is 19.8 µM (inactive); in the assay with CAKI-1, 22.5 µM (inactive); with MOLT-4 it was 5.9 µM (inactive); in the assay with MCF7, 38.4 µM (inactive); with SF-539 it was > 100 µM (inactive); in the assay on OVCAR-4 it was 63.4 µM (inactive).
With `CCN(CC)CCCNc1nccc2c(C)c3[nH]c4ccncc4c(=O)c3cc12`, the GI50 is 0.13 µM (active) in the assay on SR; 0.557 µM (active) with OVCAR-8; 2.89 µM (inactive) with SK-MEL-2; 8.71 µM with HCT-15; 2.84 µM (inactive) in the assay with M14; 0.558 µM (active) in the assay on RXF 393. Also, the GI50 in the assay on NCI-H460 was 1.71 µM (inactive); in the assay on SK-MEL-5, 3.57 µM (inactive); in the assay with NCI-H226, 2.24 µM (inactive); in the assay with CCRF-CEM, 0.746 µM (active); in the assay with UO-31 it was 9.79 µM (inactive); in the assay with K562, 2.61 µM (inactive). The GI50 was 6.84 µM (inactive) in the assay with UACC-257; 1.91 µM (inactive) in the assay on CAKI-1; 0.33 µM (active) in the assay on MOLT-4; 2.45 µM (inactive) in the assay with SF-539; 0.604 µM (active) in the assay on OVCAR-4; 3.77 µM (inactive) in the assay with SK-OV-3.
